Test results from the supplement of paper PMC10331698.
± gives the standard deviation of the averaged measurements.

Legend:
Assay in all cases: level (log10 ratio to DMSO vehicle control); higher = higher biomarker level / cell amount than vehicle control
[1] = compound: C=CC(=O)OCC(F)(F)C(F)(F)C(F)(F)C(F)(F)C(F)(F)C(F)(F)C(F)(F)F [1H,1H-Perfluorooctyl acrylate]; settings: in DMSO
Protocol: (§1)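 BioMAP Diversity Plus panel of 12 human primary cell co-culture systems (3C, 4H, LPS, SAg, BT, BF4T, BE3C, CASM3C, HDF3CGF, KF3CT, MyoF, Mphg). Compounds were added 1 h before stimulation and left for 24 h (MyoF 48 h; BT 72 h for soluble read-outs or 6 d for IgG). Biomarkers were read by ELISA, cytotoxicity by SRB, PBMC viability and proliferation by Alamar Blue. Each well value was divided by the mean of 8 DMSO control wells on the same plate and log10 transformed; duplicate blinded samples were tested at 4 concentrations.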

[2] = compound: O=C(O)C(F)(F)OC(F)(F)C(F)(F)OC(F)(F)F [Perfluoro-3,6-dioxaheptanoic acid]; settings: in DMSO
Protocol: as §1

[3] = compound: FC(F)(F)C(F)(F)C(F)(F)C(F)(F)C(F)(F)C(F)(F)C(F)(F)C(F)(F)CCS [2-(Perfluorooctyl)ethanthiol]; settings: in DMSO
Protocol: as §1

[4] = compound: OCCC(F)(F)C(F)(F)C(F)(F)C(F)(F)C(F)(F)C(F)(F)F [6:2 Fluorotelomer alcohol]; settings: in DMSO
Protocol: as §1

Perfluoropentanoic acid = compound: O=C(O)C(F)(F)C(F)(F)C(F)(F)C(F)(F)F [Perfluoropentanoic acid]; settings: in DMSO
Protocol: as §1

[5] = compound: OCC(F)(F)OC(F)(F)C(F)(F)OC(F)(F)CO [1H,1H,8H,8H-Perfluoro-3,6-dioxaoctane-1,8-diol]; settings: in DMSO
Protocol: as §1

[6] = compound: O=C(O)C(F)(F)C(F)(F)C(F)(F)C(F)(F)C(F)(F)C(F)(F)C(F)(F)C(F)F [9-H-Perfluorononanoic acid]; settings: in DMSO
Protocol: as §1

[7] = compound: OCCCC(F)(F)C(F)(F)C(F)(F)C(F)(F)C(F)(F)C(F)(F)C(F)(F)F [7:3 Fluorotelomer alcohol]; settings: 6700 nM; in DMSO
Protocol: as §1

Row | Test System | level (log10) ([1]; 6700 nM) | level (log10) ([1]; 20000 nM) | level (log10) ([1]; 60000 nM) | level (log10) ([2]; 6700 nM) | level (log10) ([2]; 20000 nM) | level (log10) ([2]; 60000 nM) | level (log10) ([3]; 6700 nM) | level (log10) ([3]; 20000 nM) | level (log10) ([4]; 6700 nM) | level (log10) ([4]; 20000 nM) | level (log10) (Perfluoropentanoic acid; 6700 nM) | level (log10) (Perfluoropentanoic acid; 20000 nM) | level (log10) (Perfluoropentanoic acid; 60000 nM) | level (log10) ([5]; 6700 nM) | level (log10) ([5]; 20000 nM) | level (log10) ([5]; 60000 nM) | level (log10) ([6]; 6700 nM) | level (log10) ([6]; 20000 nM) | level (log10) ([6]; 60000 nM) | level (log10) [7]
1 | HDF3CGF:CXCL9/MIG | -0.0265 ± 0.0035 | -0.029 ± 0.03 | -0.0745 ± 0.0078 | -0.011 ± 0.014 | 0.0145 ± 0.0064 | -0.02 ± 0.047 | -0.0085 ± 0.0078 | -0.0125 ± 0.0092 | -0.0015 ± 0.023 | 0.001 ± 0.0028 | -0.004 ± 0.0057 | -0.004 ± 0.018 | -0.003 ± 0.02 | -0.0035 ± 0.015 | -0.015 ± 0.037 | 0.0345 ± 0.067 | -0.0475 ± 0.022 | -0.052 ± 0.0071 | -0.0735 ± 0.016 | -0.0225 ± 0.018
2 | BE3C:SRB | 0.0005 ± 0.0078 | -0.003 ± 0.0085 | 0.0085 ± 0.015 | 0.0005 ± 0.0064 | -0.0025 ± 0.00071 | 0.0015 ± 0.0064 | 0.0055 ± 0.0092 | 0.0095 ± 0.005 | -0.0025 ± 0.0021 | -0.0045 ± 0.0021 | 0.002 ± 0.0085 | -0.0035 ± 0.005 | 0 ± 0.016 | -0.005 ± 0.0085 | -0.0015 ± 0.0064 | -0.0045 ± 0.012 | -0.0075 ± 0.0035 | -0.007 ± 0.0057 | -0.0105 ± 0.0035 | -0.0065 ± 0.0092
3 | BE3C:uPA | -0.003 ± 0.0099 | 0.005 ± 0.0099 | 0.0055 ± 0.00071 | -0.0495 ± 0.079 | -0.028 ± 0.069 | -0.011 ± 0.041 | 0.0045 ± 0.00071 | -0.0085 ± 0.016 | -0.004 | -0.012 ± 0.0028 | -0.0115 ± 0.0021 | -0.013 ± 0.0057 | 0.004 ± 0.018 | -0.01 ± 0.0042 | 0 ± 0.037 | -0.016 ± 0.0057 | 0.0085 ± 0.0021 | 0.003 ± 0.014 | -0.002 ± 0.0028 | 0.0005 ± 0.016
4 | HDF3CGF:CD54/ICAM-1 | -0.015 ± 0.0028 | -0.037 ± 0.0042 | -0.0545 ± 0.013 | 0.002 ± 0.0014 | -0.003 ± 0.0028 | -0.008 ± 0.014 | -0.012 ± 0.0057 | -0.0145 ± 0.021 | -0.01 ± 0.0071 | -0.0075 ± 0.0064 | 0.039 ± 0.054 | 0.035 ± 0.033 | 0.0485 ± 0.046 | 0.005 ± 0.0028 | -0.0165 ± 0.005 | -0.01 ± 0.014 | -0.035 ± 0.042 | -0.052 ± 0.021 | -0.045 ± 0.02 | -0.024 ± 0.0085
5 | 3C:CCL2/MCP-1 | -0.0085 ± 0.00071 | -0.009 ± 0.023 | 0.017 ± 0.028 | -0.023 ± 0.044 | -0.015 ± 0.013 | -0.023 ± 0.021 | 0.0045 ± 0.035 | 0.0135 ± 0.0078 | 0.008 ± 0.014 | -0.008 ± 0.0071 | -0.0105 ± 0.00071 | 0.0005 ± 0.0021 | 0.0215 ± 0.019 | 0.0005 ± 0.018 | 0.009 ± 0.0028 | 0.0145 ± 0.05 | -0.001 ± 0.021 | 0.0125 ± 0.0092 | 0.0415 ± 0.005 | 0.0045 ± 0.011
6 | KF3CT:uPA | 0.01 ± 0.0014 | -0.004 ± 0.013 | 0.0135 ± 0.023 | -0.0175 ± 0.019 | 0.023 ± 0.033 | 0.017 ± 0.05 | 0.006 ± 0.013 | 0.001 ± 0.016 | -0.015 ± 0.023 | -0.0055 ± 0.015 | 0.0015 ± 0.023 | 0 ± 0.0085 | 0.021 ± 0.0071 | -0.0045 ± 0.0092 | -0.011 ± 0.0085 | 0.0005 ± 0.021 | 0.006 ± 0.024 | 0.003 ± 0.024 | -0.0115 ± 0.00071 | -0.0075 ± 0.0064
7 | CASM3C:CD87/uPAR | 0.0095 ± 0.028 | 0.0135 ± 0.021 | 0.0235 ± 0.019 | -0.0105 ± 0.043 | 0.022 ± 0.013 | -0.006 ± 0.018 | -0.0395 ± 0.053 | -0.0205 ± 0.04 | -0.026 ± 0.013 | -0.002 ± 0.0042 | -0.027 ± 0.052 | -0.031 ± 0.027 | -0.0175 ± 0.005 | 0.0135 ± 0.00071 | -0.0085 ± 0.0078 | -0.016 ± 0.0085 | -0.001 ± 0.014 | 0.0045 ± 0.011 | 0.029 ± 0.0057 | -0.036 ± 0.057
8 | HDF3CGF:TIMP-2 | 0.0145 ± 0.016 | -0.023 ± 0.011 | -0.041 ± 0.0028 | -0.018 ± 0.062 | 0.003 ± 0.047 | 0.008 ± 0.045 | -0.0305 ± 0.073 | -0.0265 ± 0.069 | -0.007 ± 0.025 | 0.004 ± 0.021 | 0.009 ± 0.024 | -0.0155 ± 0.018 | -0.0025 ± 0.011 | -0.002 ± 0.016 | 0.002 ± 0.0071 | -0.011 ± 0.021 | -0.07 ± 0.086 | -0.0755 ± 0.028 | -0.0595 ± 0.049 | 0.0005 ± 0.013
9 | CASM3C:M-CSF | -0.0205 ± 0.032 | 0.0135 ± 0.00071 | -0.0075 ± 0.0021 | -0.09 ± 0.035 | -0.02 ± 0.023 | 0.034 ± 0.0014 | 0.013 ± 0.0014 | 0.047 ± 0.014 | -0.018 ± 0.0014 | 0.019 ± 0.016 | -0.0055 ± 0.016 | -0.004 ± 0.017 | 0.0045 ± 0.032 | -0.014 ± 0.0014 | -0.0105 ± 0.005 | 0.0115 ± 0.0092 | -0.007 ± 0.0014 | -0.012 ± 0.0028 | 0.0205 ± 0.028 | 0.007 ± 0.0042
10 | MyoF:CXCL8/IL-8 | 0.002 ± 0.0099 | 0.037 ± 0.062 | 0.0185 ± 0.036 | -0.0255 ± 0.08 | -0.0035 ± 0.03 | 0.0435 ± 0.019 | -0.0085 ± 0.011 | 0.007 ± 0.016 | 0.0185 ± 0.032 | -0.0045 ± 0.0021 | -0.008 ± 0.02 | 0.01 ± 0.0071 | 0.024 ± 0.014 | 0.006 ± 0.11 | 0.0205 ± 0.088 | 0.0365 ± 0.069 | 0.021 ± 0.023 | 0.003 ± 0.013 | -0.001 ± 0.023 | 0.017 ± 0.052
11 | CASM3C:Proliferation | -0.0105 ± 0.029 | 0.0435 ± 0.013 | -0.028 ± 0.027 | 0.02 ± 0.016 | -0.034 ± 0.065 | -0.077 ± 0.017 | 0.006 ± 0.0071 | -0.0105 ± 0.053 | -0.004 ± 0.021 | -0.0205 ± 0.023 | 0.0185 ± 0.021 | -0.0305 ± 0.067 | 0.0215 ± 0.052 | -0.0225 ± 0.0021 | -0.0045 ± 0.028 | 0.0065 ± 0.026 | 0.012 ± 0.011 | -0.016 ± 0.013 | 0.028 ± 0.088 | 0.052 ± 0.0057
12 | KF3CT:TIMP-2 | -0.0075 ± 0.00071 | -0.0155 ± 0.018 | -0.0075 ± 0.032 | 0.024 ± 0.069 | -0.0365 ± 0.13 | -0.01 ± 0.12 | -0.025 ± 0.02 | -0.021 ± 0.02 | 0.0005 ± 0.016 | 0.0015 ± 0.015 | -0.013 ± 0.037 | -0.0065 ± 0.0035 | 0.017 ± 0.045 | 0.0025 ± 0.005 | 0.005 ± 0.0014 | 0.0065 ± 0.0092 | -0.0055 ± 0.03 | -0.01 ± 0.014 | 0.016 ± 0.017 | -0.0005 ± 0.028
13 | HDF3CGF:CXCL8/IL-8 | 0.0045 ± 0.0064 | 0.0045 ± 0.0064 | 0.0095 ± 0.0035 | -0.004 ± 0.013 | 0.0015 ± 0.005 | 0.0185 ± 0.016 | -0.004 ± 0.0099 | -0.0095 ± 0.00071 | 0.004 ± 0.0028 | 0.004 | 0.003 ± 0.0057 | -0.006 ± 0.0028 | 0.002 ± 0.023 | 0.0115 ± 0.023 | 0.009 ± 0.024 | 0.015 ± 0.028 | -0.0055 ± 0.0021 | -0.0055 ± 0.0064 | 0.0015 ± 0.0035 | -0.005 ± 0.0042
14 | lMphg:CCL3/MIP-1alpha | 0.0215 ± 0.028 | 0.04 ± 0.0071 | 0.057 ± 0.0099 | -0.0185 ± 0.026 | -0.0065 ± 0.012 | -0.0065 ± 0.019 | -0.019 ± 0.014 | -0.027 ± 0.014 | -0.0295 ± 0.0064 | -0.0295 ± 0.021 | 0.008 ± 0.059 | -0.006 ± 0.055 | 0.006 ± 0.055 | -0.004 ± 0.04 | -0.0025 ± 0.022 | 0.0215 ± 0.029 | -0.005 | -0.0065 ± 0.0021 | 0.0195 ± 0.036 | -0.0155 ± 0.019
